Experimental data published in patent US9387183B2, “Method of treating diabetes-related impaired wound healing” (KUWAIT UNIVERSITY, priority 2011, dated 2016).

Legend:
[1] = tested on: TGF-β1-Smad signaling pathway; assay: TGF-β/Smad-dependent signaling in diabetic wounds; assay type: in vivo, rat; conditions: wounds from treated diabetic rats, day 7; for TGF-βRII expression: FIG. 3D; for phospho-Smad2: FIG. 3E; for Smad7 levels: FIG. 3F
Experimental: Samples of the total cellular and nuclear extracts were subjected to protein determinations using the Bicinchoninic Acid Protein Assay Kit (Pierce). For western blotting, an equal volume of 2×SDS sample buffer was added, and the samples were denatured by boiling for 5 minutes. Proteins were applied to SDS-polyacrylamide gel electrophoresis (SDS-PAGE) and transferred to an Immobilon polyvinylidene difluoride membrane (BioRad). The membranes were blocked with tris buffered saline containing 0.05% Tween 20 and 5% skim milk, and then treated with a number of primary antibodies, including Smad2/p-Smad2 (Cell Signaling), Smad7 (Imgenex), and β3-integrin (Santa Cruz). Protein bands were visualized by chemiluminescence (Pierce), and band intensity was determined using Bio-Rad densitometer. Unless otherwise specified, β-actin was used to standardize the quantity of sample protein for all Western blotting analyses.

[2] = Global physiological characteristics of diabetic rats (weights, plasma and wound fluid hormones, oxidative stress); assay type: in vivo, rat; conditions: for Plasma F2 Isoprostanes: index of oxidative stress
Experimental: All animal procedures were performed in accordance with the NIH Guidance for the Care and Use of Laboratory Animals. The current study used the mildly hyperglycemic, non-obese Goto-Kakizaki (GK) spontaneously diabetic rats, produced by selective inbreeding of glucose-intolerant Wistar rats as a genetic model for type 2 diabetes. Weight-matched female Wistar rats (Kuwait University breeding colony) served as controls. All animals were maintained under standard conditions with 12 hours on/off light cycle, commercial diet, and water ad libitum. Rats destined for various experimental manipulations, including wounding, insulin sensitivity, and drug treatment, were initially matched with regard to body weight (e.g., 230 to 250 g), plasma levels of glucose, free fatty acids and insulin. These indices are commonly used to reflect the severity of the diabetic state.
Cycling control rats in proestrus were used as a reference group. Similarly, the diabetic rats were also treated with PEG-sTNF-RI, a soluble long-lasting form of TNF-RI that neutralizes TNF-α action. […] All of the treatment regimens used with the diabetic rats were given for at least three weeks before wound initiation, and this form of treatment continued during the course of wound healing.
Animals were sacrificed at 3 and 7 days post-wounding. An area that included the complete epithelial margins was excised, and the wounds were bisected and processed so that the mid-point of the wound was sectioned and compared between groups. The resulting specimens were either fixed in 4% paraformaldehyde in phosphate-sucrose buffer and analyzed histologically, or flash frozen in liquid nitrogen and stored at −80° C. prior to biochemical analysis, or embedded in Optimum Cutting Temperature (OCT) compound and immediately frozen in liquid nitrogen for immunofluorescence analysis. It is worthy of note that the number of wounds used for most of the aforementioned studies were in the range of 48 to 60 wounds per treatment. Some parameters related to sex hormones and oxidative stress were measured in serum or wound fluids, which were collected on day 7 post-wounding from subcutaneously inserted stainless steel mesh chambers.

wound macrophage markers = conditions: diabetic wounds
GK diabetic rats [3] = assay: Insulin sensitivity clamp (Rapid Insulin Sensitivity Test) in female diabetic rats
GK diabetic rats [4] = assay: Full-thickness excisional wound healing in GK diabetic rats (closure, re-epithelialization, ECM deposition); conditions: diabetic wounds
[5] = tested on: rheumatoid arthritis in rat models; conditions: subcutaneous administration, dose of 0.3 mg/kg; cited from earlier work
NF-κB = NF-κB p65-DNA binding activity in wounds; assay type: in vivo, rat; conditions: wounds from treated diabetic rats; FIG. 5G
Experimental: To assess protein expression and NF-κB activation, frozen liquid nitrogen powdered wounded tissues or serum starved RDFs/HDFs were homogenized on ice in a RIPA buffer (50 mM Tris pH 7.4, 150 mM NaCl, 10 mM EDTA, 2 mM sodium vanadate, 150 mM sodium fluoride, 0.5% sodium deoxycholate, 1% Triton X-100, and a cocktail of protease inhibitors) for total cellular proteins, or with a hypotonic buffer A (10 mM HEPES pH 7.9, 10 mM KCl, 2 mM MgCl2, 0.1 mM EDTA, 1.0 mM DTT, 0.5 mM PMSF, 20 mM NaF, 1 mM sodium orthovanadate and a cocktail of protease inhibitors) for the nuclear protein extraction. […] Similarly, the hypotonic buffer-dependent homogenates (500 μl) were incubated on ice for 20 minutes, after which 50 μl of 10% NP-40 was added. The mixture was vortexed and centrifuged (5000×g, 1 min, 4° C.). […]
A quantitative analysis of p65-DNA binding activity was performed on the nuclear protein extracts using the ELISA-based TransAM NFκB Transcription Factor Assay Kit (Active Motif) according to the manufacturer's instruction. […] The activated transcription factor, specifically bound to the immobilized oligonucleotide, was detected using an antibody directed against NF-κB and a secondary antibody conjugated to horseradish peroxidase. The developing solution was then added, and the OD (450-665 mm) was measured using a microplate reader (Thermo Scientific). Results were expressed as % of control.

[6] = GK diabetic rats treated, plasma, mean±SEM
[7] = GK diabetic rats treated, wound fluid day 7 post-wounding, mean±SEM
[8] = female GK diabetic rats treated, mean±SEM

Molecule: C[C@]12CC[C@@H]3c4ccc(O)cc4CC[C@H]3[C@@H]1CC[C@@H]2O [E2, β-estradiol]
- TGF-βRII expression [1]: augmented
- phospho-Smad2 [1]: augmented
- Smad7 levels [1]: decreased
- Weight (g) Uterus ([2]; GK diabetic rats treated, mean±SEM): 0.41 ± 0.04 g
- Plasma F2 Isoprostanes [2, 6]: 47 ± 6.6 pg/mL
- Plasma Testosterone [2, 6]: 849 ± 85 pg/mL
- Wound fluid F2 Isoprostanes [2, 7]: 43 ± 4.4 pg/mL
- Wound fluid Testosterone [2, 7]: 456 ± 47 pg/mL
- diabetes-related abnormalities (testosterone, F2 isoprostanes, uterine weights, plasma and wound E2 levels) ([2]; GK diabetic rats, Table 1): Most of the aforementioned abnormalities were normalized
- up-regulation in M1 macrophage-derived markers, together with the resolution of inflammation within the diabetic wound microenvironment (wound macrophage markers; FIG. 5C-E): normalized
- diabetes-related decrease in the expression of wound M2 macrophage phenotype (wound macrophage markers; FIGS. 2F, 2G, 3A, 3B, 5F): partial reversal

Molecule: TNFR1: soluble pegylated long-lasting form of TNF-RI (Amgen) that neutralizes TNF-α action
- TGF-βRII expression [1]: augmented
- phospho-Smad2 [1]: augmented
- Smad7 levels [1]: decreased
- Plasma F2 Isoprostanes [2, 6]: 69 ± 8.4 pg/mL
- Wound fluid F2 Isoprostanes [2, 7]: 59 ± 5.2 pg/mL
- effect on carbohydrate tolerance (GK diabetic rats [3]; diabetic animals, Table 2): favorable effect
- hyperinsulinemic state (GK diabetic rats [3]; diabetic animals, Table 2): partially ameliorated
- target tissue sensitivity to insulin (increase in glucose infusion rate) (GK diabetic rats [3]; diabetic animals, Table 2): significantly improved
- GIR: Glucose infusion rate (GK diabetic rats [3]; female GK diabetic rats treated, clamp, mean±SEM): 18.53 ± 1.49 mg/min/kg body wt
- FBG: Fasting blood glucose (GK diabetic rats [3]; [8]): 125 ± 17 mg/dL
- FPI: Fasting plasma insulin (GK diabetic rats [3]; [8]): 0.68 ± 0.05 ng/mL
- PCPI: Post clamp plasma insulin (GK diabetic rats [3]; [8]): 4.61 ± 0.4 ng/mL
- deposition of ECM (GK diabetic rats [4]; FIG. 2A-D): significant improvement
- healing process, at the macroscopic and microscopic levels (GK diabetic rats [4]; FIGS. 1A and B): significant improvement
- inflammatory reaction of rheumatoid arthritis [5]: appears to limit the inflammatory reaction
- pro-resolving/M2 polarizing effect (wound macrophage markers): recapitulated
- NF-κB activity (NF-κB): significant decrease
